Data as given in patent US9545105B2, “1-(heterocyclic carbonyl) piperidines” (BAYER INTELLECTUAL PROPERTY GMBH, priority 2010, dated 2017).

system: Pyrenophora teres; assay: In vivo preventive test on Pyrenophora teres (barley); conditions: 500 ppm of active ingredient, evaluated 7-9 days after inoculation
How it was run: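 Young barley plants sprayed with compound in DMF/alkylaryl polyglycol ether emulsion; inoculated with P. teres spores one day later. 48 h at 22 °C, 100% humidity, then greenhouse ~20 °C, ~80% humidity; efficacy scored 7-9 days post-inoculation, 0% = untreated, 100% = no disease.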

In order of rising Efficacy:
1. CCc1nn(C)c(F)c1C(=O)N1CCCCC1c1ccc(Cl)cc1 (centres unmarked) [Example 54]  100%
2. CCC(c1ccccc1)C1CCCCN1C(=O)c1c(C(F)F)nn(C)c1F (centres unmarked) [Example 136]  100%
3. Cc1cc(C)cc(C2CCCCN2C(=O)c2c(C)nn(C)c2F)c1 (centres unmarked) [Example 10]  100%
4. CCC(c1ccccc1)C1CCCCN1C(=S)c1c(C(F)F)nn(C)c1F (centres unmarked) [Example 140]  100%
5. CCc1nn(C)c(F)c1C(=O)N1CCCCC1c1cc(C)cc(C)c1 (centres unmarked) [Example 11]  100%

system: Leptosphaeria nodorum; assay: In vivo preventive test on Leptosphaeria nodorum (wheat); conditions: 500 ppm of active ingredient, evaluated 8 days after inoculation
Protocol: (§1) Solvent: 49 parts by weight of N,N-dimethylacetamide Emulsifier: 1 part by weight of alkylaryl polyglycol ether To produce a suitable preparation of active compound, 1 part by weight of active compound or active compound combination is mixed with the stated amounts of solvent and emulsifier, and the concentrate is diluted with water to the desired concentration. To test for preventive activity, young plants are sprayed with the preparation of active compound or active compound combination at the stated rate of application. After the spray coating has been dried, the plants are sprayed with a spore suspension of Leptosphaeria nodorum. The plants remain for 48 hours in an incubation cabinet at approximately 20° C. and a relative atmospheric humidity of approximately 100%. The plants are placed in the greenhouse at a temperature of approximately 22° C. and a relative atmospheric humidity of approximately 80%. The test is evaluated 8 days after the inoculation. 0% means an efficacy which corresponds to that of the untreated control, while an efficacy of 100% means that no disease is observed.

In order of rising Efficacy:
1. Cc1cc(C)cc(C2CCCCN2C(=O)c2c(C)nn(C)c2F)c1 (centres unmarked) [Example 10]  71%
2. CCC(c1ccccc1)C1CCCCN1C(=S)c1c(C(F)F)nn(C)c1F (centres unmarked) [Example 140]  93%
3. CCc1nn(C)c(F)c1C(=O)N1CCCCC1c1ccc(Cl)cc1 (centres unmarked) [Example 54]  100%
4. CCC(c1ccccc1)C1CCCCN1C(=O)c1c(C(F)F)nn(C)c1F (centres unmarked) [Example 136]  100%

system: Blumeria graminis f. sp. hordei; assay: In vivo preventive test on Blumeria graminis (barley); conditions: 500 ppm of active ingredient, evaluated 7 days after inoculation
Protocol: Solvent: 49 parts by weight of N,N-dimethylacetamide Emulsifier: 1 part by weight of alkylaryl polyglycol ether To produce a suitable preparation of active compound, 1 part by weight of active compound or active compound combination is mixed with the stated amounts of solvent and emulsifier, and the concentrate is diluted with water to the desired concentration. To test for preventive activity, young plants are sprayed with the preparation of active compound or active compound combination at the stated rate of application. After the spray coating has been dried, the plants are dusted with spores of Blumeria graminis f. sp. hordei. The plants are placed in the greenhouse at a temperature of approximately 18° C. and a relative atmospheric humidity of approximately 80% to promote the development of mildew pustules. The test is evaluated 7 days after the inoculation. 0% means an efficacy which corresponds to that of the untreated control, while an efficacy of 100% means that no disease is observed.

In order of rising Efficacy:
1. CCc1nn(C)c(F)c1C(=O)N1CCCCC1c1ccc(Cl)cc1 (centres unmarked) [Example 54]  70%
2. CCc1nn(C)c(F)c1C(=O)N1CCCCC1c1cc(C)cc(C)c1 (centres unmarked) [Example 11]  80%
3. Cc1cc(C)cc(C2CCCCN2C(=O)c2c(C)nn(C)c2F)c1 (centres unmarked) [Example 10]  88%
4. CCC(c1ccccc1)C1CCCCN1C(=O)c1c(C(F)F)nn(C)c1F (centres unmarked) [Example 136]  100%
5. CCC(c1ccccc1)C1CCCCN1C(=S)c1c(C(F)F)nn(C)c1F (centres unmarked) [Example 140]  100%

system: not listed separately; assay: log P by HPLC on reversed-phase column (C 18), EEC Directive 79/831 Annex V.A8; assay type: physicochemical; conditions: HPLC on reversed-phase column (C 18); 40° C.; 0.1% aqueous formic acid and acetonitrile; linear gradient 10% to 90% acetonitrile
How it was run: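 40° C; 0.1% aq. formic acid/acetonitrile, linear gradient 10→90% acetonitrile. Calibration: unbranched alkan-2-ones (C3–C16), known log P. log P from retention time, linear interpolation between neighbouring alkanones. lambda-max from UV 200–400 nm at peak maxima.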

In order of falling logP:
1. CCC(c1ccccc1)C1CCCCN1C(=S)c1c(C(F)F)nn(C)c1F (centres unmarked) [Example 140]  4.39
2. CCc1nn(C)c(F)c1C(=O)N1CCCCC1c1cc(C)cc(C)c1 (centres unmarked) [Example 11]  3.62
3. CCC(c1ccccc1)C1CCCCN1C(=O)c1c(C(F)F)nn(C)c1F (centres unmarked) [Example 136]  3.59
4. CCc1nn(C)c(F)c1C(=O)N1CCCCC1c1ccc(Cl)cc1 (centres unmarked) [Example 54]  3.35
5. Cc1cc(C)cc(C2CCCCN2C(=O)c2c(C)nn(C)c2F)c1 (centres unmarked) [Example 10]  3.23

system: Puccinia triticina; assay: In vivo preventive test on Puccinia triticina (wheat); conditions: 500 ppm of active ingredient, evaluated 8 days after inoculation
Protocol: as §1, with “Puccinia triticina.” for “Leptosphaeria nodorum.”, “20°” for “22°”

In order of falling Efficacy:
1. CCc1nn(C)c(F)c1C(=O)N1CCCCC1c1ccc(Cl)cc1 (centres unmarked) [Example 54]  100%
2. CCc1nn(C)c(F)c1C(=O)N1CCCCC1c1cc(C)cc(C)c1 (centres unmarked) [Example 11]  100%
3. Cc1cc(C)cc(C2CCCCN2C(=O)c2c(C)nn(C)c2F)c1 (centres unmarked) [Example 10]  88%

system: Uromyces appendiculatus; assay: In vivo preventive test on Uromyces appendiculatus (bean rust); conditions: 100 ppm of active ingredient, evaluated 10 days after inoculation
Protocol: Solvent: 24.5 parts by weight of acetone • 24.5 parts by weight of N,N-dimethylacetamide Emulsifier: 1 part by weight of alkylaryl polyglycol ether To produce a suitable preparation of active compound, 1 part by weight of active compound is mixed with the stated amounts of solvent and emulsifier, and the concentrate is diluted with water to the desired concentration. To test for preventive activity, young plants are sprayed with the preparation of active compound at the stated rate of application. After the spray coating has dried on, the plants are inoculated with an aqueous spore suspension of the causal agent of bean rust (Uromyces appendiculatus) and then remain for 1 day in an incubation cabinet at approximately 20° C. and a relative atmospheric humidity of 100%. The plants are then placed in a greenhouse at approximately 21° C. and a relative atmospheric humidity of approximately 90%. The test is evaluated 10 days after the inoculation. 0% means an efficacy which corresponds to that of the untreated control, while an efficacy of 100% means that no disease is observed.

In order of falling Efficacy:
1. Cc1cc(C)cc(C2CCCCN2C(=O)c2c(C)nn(C)c2F)c1 (centres unmarked) [Example 10]  100%
2. CCc1nn(C)c(F)c1C(=O)N1CCCCC1c1cc(C)cc(C)c1 (centres unmarked) [Example 11]  98%
3. CCc1nn(C)c(F)c1C(=O)N1CCCCC1c1ccc(Cl)cc1 (centres unmarked) [Example 54]  96%
4. CCC(c1ccccc1)C1CCCCN1C(=S)c1c(C(F)F)nn(C)c1F (centres unmarked) [Example 140]  94%
5. CCC(c1ccccc1)C1CCCCN1C(=O)c1c(C(F)F)nn(C)c1F (centres unmarked) [Example 136]  78%

system: Alternaria solani; assay: In vivo preventive test on Alternaria solani (tomato); conditions: 500 ppm of active ingredient, evaluated 7 days after inoculation
How it was run: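 Young tomato plants were sprayed preventively with compound in DMF/alkylarylpolyglycolether diluted in water, then inoculated one day later with A. solani spores. Incubation was 1 day at about 22 °C and 100% RH, then about 20 °C and 96% RH. Efficacy was scored 7 days after inoculation (0% = untreated control, 100% = no disease).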

In order of falling Efficacy:
1. CCC(c1ccccc1)C1CCCCN1C(=O)c1c(C(F)F)nn(C)c1F (centres unmarked) [Example 136]  100%
2. CCC(c1ccccc1)C1CCCCN1C(=S)c1c(C(F)F)nn(C)c1F (centres unmarked) [Example 140]  100%
3. CCc1nn(C)c(F)c1C(=O)N1CCCCC1c1cc(C)cc(C)c1 (centres unmarked) [Example 11]  100%
4. CCc1nn(C)c(F)c1C(=O)N1CCCCC1c1ccc(Cl)cc1 (centres unmarked) [Example 54]  95%
5. Cc1cc(C)cc(C2CCCCN2C(=O)c2c(C)nn(C)c2F)c1 (centres unmarked) [Example 10]  90%
